Measured values from article PMC11003488 (Journal of Enzyme Inhibition and Medicinal Chemistry, 2023).

How the values were obtained:
MDA-MB-468 = experiment: NCI-60 SRB growth inhibition, one-dose and five-dose; assay type: cell-based; conditions: Homo sapiens; for GI50: MDA-MB-468; for inhibition at 10 µM: MDA-MB-468, read-out: percent growth inhibition
MOLT-4 = experiment: as above; assay type: cell-based; conditions: Homo sapiens; for GI50: MOLT-4; for inhibition at 10 µM: MOLT-4, read-out: percent growth inhibition
UO-31 = experiment: as above; assay type: cell-based; conditions: Homo sapiens; for GI50: UO-31
HL-60(TB) = experiment: cells; assay type: cell-based; conditions: Homo sapiens; for GI50: HL-60; for inhibition at 10 µM: HL-60, read-out: percent growth inhibition
SR = experiment: NCI-60 SRB growth inhibition, one-dose and five-dose; assay type: cell-based; conditions: Homo sapiens
SF-295 = experiment: as above; assay type: cell-based; conditions: Homo sapiens; for GI50: SF-295; for inhibition at 10 µM: SF-295, read-out: percent growth inhibition
[1] = test system: Prostate cancer cell lines; experiment: NCI-60 SRB growth inhibition, subpanel; assay type: cell-based, human; conditions: Homo sapiens, read-out: GI50 MG-MID
Renal cancer cell lines = experiment: NCI-60 SRB growth inhibition, subpanel; assay type: cell-based, human; conditions: Homo sapiens, read-out: GI50 MG-MID
NSCLC cell lines = experiment: NCI-60 SRB growth inhibition, subpanel; assay type: cell-based, human; conditions: Homo sapiens, read-out: GI50 MG-MID
Colon cancer cell lines = experiment: NCI-60 SRB growth inhibition, subpanel; assay type: cell-based, human; conditions: Homo sapiens, read-out: GI50 MG-MID
DU-145 = experiment: NCI-60 SRB growth inhibition, one-dose and five-dose; assay type: cell-based; conditions: Homo sapiens; for GI50: DU-145; for inhibition at 10 µM: DU-145, read-out: percent growth inhibition
Human VEGFR-2 = Human VEGFR-2 (Homo sapiens, UniProt P35968); experiment: VEGFR-2 inhibition assay; assay type: biochemical
Human VEGFR-2, sequence (P35968 20-1356): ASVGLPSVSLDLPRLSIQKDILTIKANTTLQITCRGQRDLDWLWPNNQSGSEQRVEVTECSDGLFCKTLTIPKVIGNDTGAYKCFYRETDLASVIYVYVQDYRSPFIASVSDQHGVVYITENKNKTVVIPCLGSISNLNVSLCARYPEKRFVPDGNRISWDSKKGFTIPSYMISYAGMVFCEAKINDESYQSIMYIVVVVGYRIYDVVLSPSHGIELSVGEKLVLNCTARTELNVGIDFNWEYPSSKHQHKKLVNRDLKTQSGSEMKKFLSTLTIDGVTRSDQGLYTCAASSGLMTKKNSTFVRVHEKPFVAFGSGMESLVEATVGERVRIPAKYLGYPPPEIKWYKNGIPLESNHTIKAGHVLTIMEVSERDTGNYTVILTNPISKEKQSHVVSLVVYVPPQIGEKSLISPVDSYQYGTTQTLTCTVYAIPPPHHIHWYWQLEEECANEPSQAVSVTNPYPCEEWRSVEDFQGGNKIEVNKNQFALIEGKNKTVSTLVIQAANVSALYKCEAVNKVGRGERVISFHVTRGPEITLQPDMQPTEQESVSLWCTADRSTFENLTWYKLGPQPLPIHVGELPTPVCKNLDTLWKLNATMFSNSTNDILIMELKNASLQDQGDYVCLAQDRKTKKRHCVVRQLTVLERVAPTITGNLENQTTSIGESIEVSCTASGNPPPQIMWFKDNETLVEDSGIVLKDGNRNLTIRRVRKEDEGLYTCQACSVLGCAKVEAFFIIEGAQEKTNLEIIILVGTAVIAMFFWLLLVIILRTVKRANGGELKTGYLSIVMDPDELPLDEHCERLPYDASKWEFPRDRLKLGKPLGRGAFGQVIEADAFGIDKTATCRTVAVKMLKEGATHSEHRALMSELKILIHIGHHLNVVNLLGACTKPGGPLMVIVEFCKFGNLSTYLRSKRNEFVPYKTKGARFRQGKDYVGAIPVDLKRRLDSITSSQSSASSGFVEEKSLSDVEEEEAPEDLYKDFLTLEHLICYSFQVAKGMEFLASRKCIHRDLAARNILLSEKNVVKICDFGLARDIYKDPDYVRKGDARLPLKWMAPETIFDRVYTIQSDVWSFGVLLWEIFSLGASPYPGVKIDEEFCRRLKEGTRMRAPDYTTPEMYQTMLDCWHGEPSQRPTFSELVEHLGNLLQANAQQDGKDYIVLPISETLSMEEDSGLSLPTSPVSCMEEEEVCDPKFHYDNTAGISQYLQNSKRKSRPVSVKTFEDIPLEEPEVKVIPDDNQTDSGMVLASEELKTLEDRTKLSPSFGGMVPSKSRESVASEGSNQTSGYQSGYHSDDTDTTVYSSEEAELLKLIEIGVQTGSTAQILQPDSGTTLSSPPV

MDA-MB-435 = experiment: NCI-60 SRB growth inhibition, one-dose and five-dose; assay type: cell-based; conditions: Homo sapiens; for GI50: MDA-MB-435; for inhibition at 10 µM: MDA-MB-435, read-out: percent growth inhibition
Leukaemia cell lines = experiment: NCI-60 SRB growth inhibition, subpanel; assay type: cell-based, human; conditions: Homo sapiens, read-out: GI50 MG-MID
Melanoma cell lines = experiment: NCI-60 SRB growth inhibition, subpanel; assay type: cell-based, human; conditions: Homo sapiens, read-out: GI50 MG-MID
SN12C = experiment: NCI-60 SRB growth inhibition, one-dose and five-dose; assay type: cell-based; conditions: Homo sapiens; for inhibition at 10 µM: read-out: percent growth inhibition
SF-539 = experiment: as above; assay type: cell-based; conditions: Homo sapiens; for GI50: SF-539; for inhibition at 10 µM: SF-539, read-out: percent growth inhibition
CAKI-1 = experiment: as above; assay type: cell-based; conditions: Homo sapiens; for GI50: CAKI-1; for inhibition at 10 µM: CAKI-1, read-out: percent growth inhibition
[2] = test system: WI-38 normal human fibroblast cells; experiment: Cytotoxicity towards normal fibroblasts, safety index; assay type: cell-based; conditions: WI-38 versus cancer cell lines
[3] = as above; assay type: cell-based, human; conditions: human, WI-38 normal fibroblast cells
Breast cancer cell lines = experiment: NCI-60 SRB growth inhibition, subpanel; assay type: cell-based, human; conditions: Homo sapiens, read-out: GI50 MG-MID
MDA-MB-231/ATCC = experiment: NCI-60 SRB growth inhibition, one-dose and five-dose; assay type: cell-based; conditions: Homo sapiens; for GI50: MDA-MB-231
[4] = test system: Ovarian cancer cell lines; experiment: NCI-60 SRB growth inhibition, subpanel; assay type: cell-based, human; conditions: Homo sapiens, read-out: GI50 MG-MID
SNB-19 = experiment: NCI-60 SRB growth inhibition, one-dose and five-dose; assay type: cell-based; conditions: Homo sapiens; for GI50: SNB-19; for inhibition at 10 µM: SNB-19, read-out: percent growth inhibition
SW-620 = experiment: as above; assay type: cell-based; conditions: Homo sapiens; for GI50: SW-620; for inhibition at 10 µM: SW-620, read-out: percent growth inhibition
UACC-257 = experiment: as above; assay type: cell-based; conditions: Homo sapiens; for GI50: UACC-257; for inhibition at 10 µM: UACC-257, read-out: percent growth inhibition
OVCAR-8 = experiment: as above; assay type: cell-based; conditions: Homo sapiens; for inhibition at 10 µM: OVCAR-8, read-out: percent growth inhibition
A549/ATCC = experiment: as above; assay type: cell-based; conditions: Homo sapiens; for GI50: A549; for inhibition at 10 µM: A549, read-out: percent growth inhibition
RPMI-8226 = experiment: as above; assay type: cell-based; conditions: Homo sapiens; for GI50: RPMI-8226; for inhibition at 10 µM: RPMI-8226, read-out: percent growth inhibition
CNS cancer cell lines = experiment: NCI-60 SRB growth inhibition, subpanel; assay type: cell-based, human; conditions: Homo sapiens, read-out: GI50 MG-MID
RXF 393 = experiment: NCI-60 SRB growth inhibition, one-dose and five-dose; assay type: cell-based; conditions: Homo sapiens; for GI50: RXF 393; for inhibition at 10 µM: RXF 393, read-out: percent growth inhibition

In the case of `CC(=O)Nc1ccc(/C=C/C(=O)c2cccc(NCc3ccc(C)cc3)c2)cc1` [Compound 5f, (E)-N-(4–(3-(3-((4-methylbenzyl)amino)phenyl)-3-oxoprop-1-en-1-yl)phenyl)acetamide], the GI50 (MDA-MB-468) is reported as 4.23 µM, the inhibition at 10 µM (MDA-MB-468) is reported as 85.6% and the GI50 (MOLT-4) is reported as 2.69 µM. For the same compound, the inhibition at 10 µM (MOLT-4) was 62%, the GI50 (UO-31) was 6.78 µM and the inhibition at 10 µM (UO-31; UO-31, read-out: percent growth inhibition) was 50.2%. For the same compound, the GI50 (HL-60(TB)) was 3.99 µM, the inhibition at 10 µM (HL-60(TB)) was 52% and the GI50 (SR) was 1.51 µM. For the same compound, the inhibition at 10 µM (SR; read-out: percent growth inhibition) was 96.5%, the GI50 (SF-295) was 15.7 µM and the inhibition at 10 µM (SF-295) was 27.7%. For the same compound, the GI50 [1] was 10.1 µM, the GI50 (Renal cancer cell lines) was 11.4 µM and the GI50 (NSCLC cell lines) was 13.4 µM. It also gave a GI50 (Colon cancer cell lines) of 7.86 µM, a GI50 (DU-145) of 7.44 µM and an inhibition at 10 µM (DU-145) of 62.1%. The IC50 (Human VEGFR-2) was 0.89 ± 0.009 µM, the GI50 (MDA-MB-435) was 6.21 µM and the inhibition at 10 µM (MDA-MB-435) was 35.7%. For the same compound, the GI50 (Leukaemia cell lines) was 2.73 µM, the GI50 (Melanoma cell lines) was 10.5 µM and the GI50 (SN12C) was 7.76 µM. For the same compound, the inhibition at 10 µM (SN12C) was 88%, the GI50 (SF-539) was 9.33 µM and the inhibition at 10 µM (SF-539) was 153%. The GI50 (CAKI-1) was 10.8 µM, the inhibition at 10 µM (CAKI-1) was 23.2% and the Safety index [2] was greater than 1. It also gave a GI50 at 48 h [3] greater than 100 µM, a GI50 (Breast cancer cell lines) of 7.03 µM and a GI50 (MDA-MB-231/ATCC) of 3.7 µM. For the same compound, the inhibition at 10 µM (MDA-MB-231/ATCC; MDA-MB-231, read-out: percent growth inhibition) was 89.4%, the GI50 [4] was 10.5 µM and the GI50 (SNB-19) was 12.4 µM. For the same compound, the inhibition at 10 µM (SNB-19) was 31.4%, the GI50 (SW-620) was 2.17 µM and the inhibition at 10 µM (SW-620) was 156%. It also gave a GI50 (UACC-257) of 14.2 µM, an inhibition at 10 µM (UACC-257) of 15.7% and a GI50 (OVCAR-8; OVCAR-8) of 2.98 µM. The inhibition at 10 µM (OVCAR-8) was 88.1%, the GI50 (A549/ATCC) was 24.6 µM and the inhibition at 10 µM (A549/ATCC) was 30.5%. The GI50 (RPMI-8226) was 2.29 µM, the inhibition at 10 µM (RPMI-8226) was 105% and the GI50 (CNS cancer cell lines) was 9.73 µM. For the same compound, the GI50 (RXF 393) was 10.9 µM and the inhibition at 10 µM (RXF 393) was 32.9%.
Compound `CC(=O)Nc1ccc(/C=C/C(=O)c2cccc(NCc3ccc(NC(C)=O)cc3)c2)cc1` [Compound 5g, (E)-N-(4–(3-(3-((4-acetamidobenzyl)amino)phenyl)-3-oxoprop-1-en-1-yl)phenyl) acetamide] has a GI50 (MDA-MB-468) of 10 µM, an inhibition at 10 µM (MDA-MB-468) of 68.2% and a GI50 (MOLT-4) of 3.21 µM. For the same compound, the inhibition at 10 µM (MOLT-4) was 116%, the GI50 (UO-31) was 10.8 µM and the GI50 (HL-60(TB)) was 7.08 µM. It also gave an inhibition at 10 µM (HL-60(TB)) of 100%, a GI50 (SR) of 2.43 µM and a GI50 (SF-295) of 14 µM. It also gave an inhibition at 10 µM (SF-295) of 51.8%, a GI50 [1] of 11.7 µM and a GI50 (Renal cancer cell lines) of 10.7 µM. The GI50 (NSCLC cell lines) was 12.2 µM, the GI50 (Colon cancer cell lines) was 8.13 µM and the GI50 (DU-145) was 11.8 µM. For the same compound, the inhibition at 10 µM (DU-145) was 61.7%, the IC50 (Human VEGFR-2) was 0.47 ± 0.013 µM and the GI50 (MDA-MB-435) was 10.3 µM. It also gave an inhibition at 10 µM (MDA-MB-435) of 39%, a GI50 (Leukaemia cell lines) of 3.87 µM and a GI50 (Melanoma cell lines) of 9.64 µM. For the same compound, the GI50 (SN12C) was 4.82 µM, the inhibition at 10 µM (SN12C) was 87% and the GI50 (SF-539) was 12.2 µM. For the same compound, the inhibition at 10 µM (SF-539) was 167%, the GI50 (CAKI-1) was 12.2 µM and the inhibition at 10 µM (CAKI-1) was 54.9%. It also gave a Safety index [2] greater than 1, a GI50 at 48 h [3] greater than 100 µM and a GI50 (Breast cancer cell lines) of 7.7 µM. It also gave a GI50 (MDA-MB-231/ATCC) of 4.56 µM, a GI50 [4] of 11.8 µM and a GI50 (SNB-19) of 7 µM. For the same compound, the inhibition at 10 µM (SNB-19) was 95.4%, the GI50 (SW-620) was 1.9 µM and the inhibition at 10 µM (SW-620) was 158%. It also gave a GI50 (UACC-257) of 12.5 µM, an inhibition at 10 µM (UACC-257) of 51.1% and an inhibition at 10 µM (OVCAR-8) of 129%. For the same compound, the GI50 (A549/ATCC) was 15.8 µM, the inhibition at 10 µM (A549/ATCC) was 10.9% and the GI50 (RPMI-8226) was 3.02 µM. For the same compound, the inhibition at 10 µM (RPMI-8226) was 130%, the GI50 (CNS cancer cell lines) was 9.95 µM and the GI50 (RXF 393) was 11.3 µM. The inhibition at 10 µM (RXF 393) was 158%.
